From BindingDB's records for patent US20260049089 (Shanghai Apeiron Therapeutics Company, 2026)

Assays:
GTPase KRas (G12D) [1] = molecular target: T1, GTPase KRas (G12D) (Homo sapiens, UniProt P01116, G12D); assay: KRAS-GCP Protein Assay
Method: 6> Add 5 μL of KRAS solution prepared with Buffer 1 to each well of the high-signal control group and compound test wells; […]. The final concentration of KRAS in the reaction is 5 nM. Incubate at room temperature for 1 hour.7> Add 5 μL of Buffer 2 to each well. Incubate at room temperature for 1 hour.8> Add 5 μL of a solution containing cRAF and AlphaLISA Nickel Acceptor beads prepared with Buffer 2 to each well. Final concentrations in the reaction: 50 nM for cRAF and 20 μg/mL for AlphaLISA Nickel Acceptor beads. Incubate at room temperature for 1 hour.9> Add 5 μL of an AlphaScreen GSH Donor beads solution prepared with Buffer 2 to each well. Final concentration in the reaction: 20 μg/mL. Incubate at room temperature for 1 hour.10> Measure the signal values using an EnVision plate reader.

GTPase KRas (G12D) [2] = molecular target: T1, GTPase KRas (G12D); assay: KRAS-GDP Protein Assay
Method: 6> Add 5 μL of KRAS solution prepared with Buffer 1 to each well of the high-signal control group and compound test wells. Add 5 μL of Buffer 1 to each well of the low-signal control group. The final concentration of KRAS in the reaction is 5 nM (initially 40 nM, optimized to 5 nM). Incubate at room temperature for 1 hour.7> Add 5 μL of a solution containing SOS1 and GTP prepared with Buffer 2 to each well. Final concentrations in the reaction: 50 nM for SOS1 (initially 250 nM) and 125 μM for GTP (initially 625 μM). Incubate at room temperature for 1 hour.8> Add 5 μL of a solution containing cRAF and AlphaLISA Nickel Acceptor beads prepared with Buffer 2 to each well. Final concentrations in the reaction: 50 nM for cRAF and 20 μg/mL for AlphaLISA Nickel Acceptor beads. Incubate at room temperature for 1 hour.9> Add 5 μL of an AlphaScreen GSH Donor beads solution prepared with Buffer 2 to each well. Final concentration in the reaction: 20 μg/mL. Incubate at room temperature for 1 hour.10> Measure the signal values using an EnVision plate reader. Excitation wavelength: 680 nm, Emission wavelength: 615 nm.

GTPase KRas (G12D) [3] = molecular target: T1, GTPase KRas (G12D); assay: KRAS-GTP Protein Assay
Method: 6> Mix the prepared protein solution with the SOS1-GTP solution (at the same concentration as used for the GDP protein assay) in a 1:1 volume ratio. Pre-incubate the mixture at room temperature for 1 hour.7> Add 10 μL of the mixture from Step I to each well of the high-signal control group and compound test wells. For the low-signal control group, add 5 μL of Buffer 1 and 5 μL of the SOS1-GTP mixture to each well. Incubate at room temperature for 1 hour.8> Add 5 μL of a solution containing cRAF and AlphaLISA Nickel Acceptor beads prepared with Buffer 2 to each well. Final concentrations in the reaction: 50 nM for cRAF and 20 μg/mL for AlphaLISA Nickel Acceptor beads. Incubate at room temperature for 1 hour.9> Add 5 μL of an AlphaScreen GSH Donor beads solution prepared with Buffer 2 to each well. Final concentration in the reaction: 20 μg/mL. Incubate at room temperature for 1 hour.10> Measure the signal values using an EnVision plate reader. Excitation wavelength: 680 nm, Emission wavelength: 615 nm.

T1 sequence (P01116 whole entry G12D): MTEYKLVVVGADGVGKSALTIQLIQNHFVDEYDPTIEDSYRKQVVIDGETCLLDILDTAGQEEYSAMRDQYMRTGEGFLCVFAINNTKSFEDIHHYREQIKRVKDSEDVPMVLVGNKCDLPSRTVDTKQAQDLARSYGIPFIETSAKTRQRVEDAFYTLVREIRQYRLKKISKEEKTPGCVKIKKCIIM

SMILES | IC50 (GTPase KRas (G12D) [1]) [nM] | IC50 (GTPase KRas (G12D) [2]) [nM] | IC50 (GTPase KRas (G12D) [3]) [nM]
Oc1cc2c3c(c(F)ccc3c1)CCCCNc1cc3c(N4CC5CCC(C4)N5)nc(OC[C@@]45CCCN4C[C@H](F)C5)nc3c(F)c1-2 [US20260049089, Example 2] | > 1000 | 2.87 | 3.23
CN1CCCCc2c(F)ccc3cc(O)cc(c23)-c2c1cc1c(N3CC4CCC(C3)N4)nc(OC[C@@]34CCCN3C[C@H](F)C4)nc1c2F [US20260049089, Example 3] | > 1000 | 2.31 | 3.24
O=C1CCCCc2c(F)ccc3cc(O)cc(c23)-c2c(cc3c(N4CC5CCC(C4)N5)nc(OC[C@@]45CCCN4C[C@H](F)C5)nc3c2F)N1 [US20260049089, Example 4] | 94.4 | 2.2 | 3.5
Oc1cc2c3c(c(F)ccc3c1)CCCCCNc1cc3c(N4CC5CCC(C4)N5)nc(OC[C@@]45CCCN4C[C@H](F)C5)nc3c(F)c1-2 [US20260049089, Example 5] | 232 | 2.06 | 2.63
